Drawing on article PMC7974150, “Backbone assignment of E. coli NfsB and the effects of addition of the cofactor analogue nicotinic acid” (Biomolecular Nmr Assignments, 2021), this text covers Kd for one compound.

The test has as its target T1, E. coli nitroreductase NfsB (also called NfnB) (Escherichia coli, UniProt P38489).
T1 sequence (P38489 2-217): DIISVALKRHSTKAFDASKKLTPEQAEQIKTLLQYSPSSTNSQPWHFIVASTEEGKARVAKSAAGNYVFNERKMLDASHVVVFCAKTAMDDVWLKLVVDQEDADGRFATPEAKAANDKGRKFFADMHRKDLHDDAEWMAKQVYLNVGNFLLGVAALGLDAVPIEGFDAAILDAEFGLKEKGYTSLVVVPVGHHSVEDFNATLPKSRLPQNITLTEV
Nature of the test: 1D 1H NMR titration, ligand proton shifts fitted to hyperbola. It is filed as binding. Conditions: read-out: Apparent Kd. The source says:
1D 1H NMR titration, ligand proton shifts fitted to hyperbola on E. coli nitroreductase NfsB (also called NfnB)

On to `O=C(O)c1cccnc1` [nicotinate], for which the Kd came out at 1900 ± 300 µM.
